{"source": "patent US20120053115A1", "about": "“Lantibiotic Carboxyamide Derivatives With Enhanced Antibacterial Activity” (Sentinella Pharmaceuticals, Inc., priority 2008, published 2012)", "key": {"[1]": {"system": "C. albicans ATCC 90028 (code 145)", "settings": "0.02% albumine bovine serum, read after 24 h", "procedure": "(§1) MICs were performed using the broth microdilution methodology following the NCCLS procedure (NCCLS Document M7-A4 Vol. 17 No. 2 January 1997) in presence of 0.02% albumine bovine serum with inocula of approximately 5×10^5 cfu/mL. The media employed included cation-adjusted Mueller-Hinton (MH) broth (Difco Laboratories, Detroit, Mich., USA) supplemented or not with 30% (v/v) bovine serum. Tests were read after 24 h incubation at 25-37° C."}, "[2]": {"system": "E. faecalisVanA (code 560)", "settings": "E. faecalis VanA code 560; 0.02% albumine bovine serum; read after 24 h", "procedure": "as §1"}, "[3]": {"system": "E. faecalisVanS (code 559)", "settings": "E. faecalis VanS code 559; 0.02% albumine bovine serum; read after 24 h", "procedure": "as §1"}, "[4]": {"system": "E. faecium VanA (code 569)", "settings": "0.02% albumine bovine serum, read after 24 h", "procedure": "as §1"}, "[5]": {"system": "Enterococcus faecium VanS (code 568)", "settings": "E. faecium VanS code 568; 0.02% albumine bovine serum; read after 24 h", "procedure": "as §1"}, "[6]": {"system": "Escherichia coli (code 47)", "settings": "0.02% albumine bovine serum, read after 24 h", "procedure": "as §1"}, "[7]": {"system": "S. epidermidis ATCC12228 (code 147)", "settings": "0.02% albumine bovine serum, read after 24 h", "procedure": "as §1"}, "[8]": {"system": "S. haemolyticus Met-R (code 1729)", "settings": "0.02% albumine bovine serum, read after 24 h", "procedure": "as §1"}, "[9]": {"system": "S. haemolyticus Met-S (code 1730)", "settings": "0.02% albumine bovine serum, read after 24 h", "procedure": "as §1"}, "[10]": {"system": "S. pyogenes (code 49)", "settings": "0.02% albumine bovine serum, read after 24 h", "procedure": "as §1"}, "[11]": {"system": "Staphylococcus aureus VISA (code 3798)", "settings": "S. aureus VISA code 3798; 0.02% albumine bovine serum; read after 24 h", "procedure": "as §1"}, "[12]": {"system": "Staphylococcus aureus VISA Met-R (code 3797)", "settings": "S. aureus VISA Met-R code 3797; 0.02% albumine bovine serum; read after 24 h", "procedure": "as §1"}}}
{"smiles": "C=C1NC(=O)[C@H](C(C)C)NC(=O)[C@H](NC(=O)/C(=C/C)NC(=O)[C@@H](N)[C@@H](C)CC)CSC[C@@H](C(=O)N[C@H]2C(=O)N3CCC[C@H]3C(=O)NCC(=O)N[C@H](C(=O)N[C@H](C(=O)N[C@@H]3CSC[C@@H]4NC(=O)CNC(=O)[C@@H](CSC[C@@H]5NC(=O)[C@H](Cc6c[nH]cn6)NC(=O)[C@@H](CSC[C@@H](C(=O)O)NC5=O)NC4=O)NC(=O)CNC(=O)CNC(=O)CNC(=O)[C@H](CCC(=O)O)NC3=O)[C@@H](C)O)CS[C@H]2C)NC(=O)[C@H](Cc2c[nH]c3ccccc23)NC1=O", "note": "[Compound 97518, reference compound]", "values": [{"measurement": "Minimal Inhibitory Concentrations", "setting": "[1]", "result": 64, "unit": "µg/mL"}, {"measurement": "Minimal Inhibitory Concentrations", "setting": "[2]", "result": 128, "unit": "µg/mL"}, {"measurement": "Minimal Inhibitory Concentrations", "setting": "[3]", "result": 128, "unit": "µg/mL"}, {"measurement": "Minimal Inhibitory Concentrations", "setting": "[4]", "result": ">128", "unit": "µg/mL"}, {"measurement": "Minimal Inhibitory Concentrations", "setting": "[5]", "result": ">128", "unit": "µg/mL"}, {"measurement": "Minimal Inhibitory Concentrations", "setting": "[6]", "result": ">128", "unit": "µg/mL"}, {"measurement": "Minimal Inhibitory Concentrations", "setting": "[7]", "result": 64, "unit": "µg/mL"}, {"measurement": "Minimal Inhibitory Concentrations", "setting": "[8]", "result": 128, "unit": "µg/mL"}, {"measurement": "Minimal Inhibitory Concentrations", "setting": "[9]", "result": 128, "unit": "µg/mL"}, {"measurement": "Minimal Inhibitory Concentrations", "setting": "[10]", "result": 0.25, "unit": "µg/mL"}, {"measurement": "Minimal Inhibitory Concentrations", "setting": "[11]", "result": ">128", "unit": "µg/mL"}, {"measurement": "Minimal Inhibitory Concentrations", "setting": "[12]", "result": ">128", "unit": "µg/mL"}]}
